Data as given in patent US20060142194A1, “Methods and compounds for treating brain amyloidosis” (Evotec NeuroSciences GmbH, priority 2000, published 2006).
Entries after “also recorded” stand apart in the source; their conditions may differ.

Experiments:
NL-1 (neprilysin like 1) = biological target: T1, NL-1 (neprilysin like 1) (Mus musculus, UniProt Q9JLI3); details: cited from earlier work
T1 sequence (Q9JLI3 63-765): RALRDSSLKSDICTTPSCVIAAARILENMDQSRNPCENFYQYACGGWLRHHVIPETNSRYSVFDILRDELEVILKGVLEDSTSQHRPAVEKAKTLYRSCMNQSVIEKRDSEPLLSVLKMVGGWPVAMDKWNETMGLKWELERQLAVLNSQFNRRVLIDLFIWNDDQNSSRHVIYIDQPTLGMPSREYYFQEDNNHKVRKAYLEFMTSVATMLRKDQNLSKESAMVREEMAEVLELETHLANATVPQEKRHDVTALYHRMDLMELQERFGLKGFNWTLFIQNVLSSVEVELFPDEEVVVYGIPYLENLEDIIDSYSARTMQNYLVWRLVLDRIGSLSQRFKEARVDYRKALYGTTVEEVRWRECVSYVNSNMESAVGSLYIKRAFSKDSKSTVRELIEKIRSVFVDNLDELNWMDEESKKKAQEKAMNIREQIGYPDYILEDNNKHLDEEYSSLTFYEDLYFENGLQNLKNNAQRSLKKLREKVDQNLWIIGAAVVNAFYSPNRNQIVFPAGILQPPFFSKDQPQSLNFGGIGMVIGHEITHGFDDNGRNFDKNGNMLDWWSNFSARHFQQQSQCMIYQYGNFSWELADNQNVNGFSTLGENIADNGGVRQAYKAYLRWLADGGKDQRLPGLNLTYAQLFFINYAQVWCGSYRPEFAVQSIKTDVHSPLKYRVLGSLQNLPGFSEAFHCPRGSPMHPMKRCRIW

transgenic SwAPP mice [1] = test: Brain amyloid plaque staining and counts (thioflavin S, 4G8) in SwAPP mice; format: in vivo
Experimental: Animals: Transgenic mice expressing the AD-causing Swedish double mutant of the human APP gene were generated and bred as described previously (Hsiao K. K. et al., Neuron 15, 1203-1218, 1995; Hsiao K. et al., Science 274, 99-102, 1996). All mice used in this study were the progeny of a single SwAPP male, crossbred to wild-type littermates. The colony was housed under a light cycle of 12 hours with dry food and water ad libitum. The presence of the transgene was determined by PCR on genomic DNA isolated from tail biopsies using specific primers GTGGATAACCCCTCCCCCAGCCTAGACCA and CTGACCACTCGACCAGGTTCTGGGT to the transgene. […] After the injection, the needle was left in place for 1 more minute, and then was slowly withdrawn over a period of 1 minute. […]
(§1) To be sure that no amyloid plaques were missed in the mice, every 50th coronal section (250 μm apart) of all mice was stained, beginning with a random section of the olfactory bulbs. […] Existing plaques in 3 representative sections of each mouse were counted. […] To determine whether the reduced amyloid pathology was associated with reduced concentrations of transgenic Aβ, human Aβ was measured by a sandwich ELISA that specifically recognized intact human Aβ (Nitsch, R. M. et al., Ann. Neurol. in Press). As expected, no human Aβ was detected by ELISA in wild-type mice.

NEP [2] = test: NEP immunohistochemistry of brain sections after intracranial Aβ42 injection; format: in vivo; details: single intracranial injection of 1 μl aggregated Aβ42 (350 μM); SwAPP and wild-type mice; 11 and 20 weeks after injection; vs PBS
Experimental: Animals: Transgenic mice expressing the AD-causing Swedish double mutant of the human APP gene were generated and bred as described previously (Hsiao K. K. et al., Neuron 15, 1203-1218, 1995; Hsiao K. et al., Science 274, 99-102, 1996). All mice used in this study were the progeny of a single SwAPP male, crossbred to wild-type littermates. The colony was housed under a light cycle of 12 hours with dry food and water ad libitum. The presence of the transgene was determined by PCR on genomic DNA isolated from tail biopsies using specific primers GTGGATAACCCCTCCCCCAGCCTAGACCA and CTGACCACTCGACCAGGTTCTGGGT to the transgene. […] After the injection, the needle was left in place for 1 more minute, and then was slowly withdrawn over a period of 1 minute.
Preparation of tissue: For combined Western blot analyses and immunohistochemistry, mice were deeply anesthetized and were perfused transcardially using ice-cold PBS (pH 7.4). […]
In contrast, in SwAPP mice as well as in wild-type littermates injected with PBS vehicle alone, neuronal NEP staining was weak and diffuse (FIG. 2 a-c, g-i). […] To confirm this finding, we next analysed brain proteins prepared from Aβ42-injected mice extracts by Western blotting.

NEP [3] = test: Western blot and densitometry of NEP in brain extracts after Aβ42 injection; format: in vivo; details: as early as one week after Aβ42 injection; SwAPP and wild-type mice; vs uninjected or PBS-injected
Experimental: Actin was used to control for equal loading (a). […] The intensity of each NEP and actin bands was measured using the NIH-Image software. […] Data represent means of each group+SEM * p≦0.05, ** p≦0.01, Mann-Whitney U test. n=3 for each group.
All mice used in this study were the progeny of a single SwAPP male, crossbred to wild-type littermates. The colony was housed under a light cycle of 12 hours with dry food and water ad libitum. […] After the injection, the needle was left in place for 1 more minute, and then was slowly withdrawn over a period of 1 minute.
Western-blot analysis: Protein concentration of brain extracts were determined with the Bredford protein assay and equal amounts of protein (60 μg) were loaded to each lane of 8% acrylamid gels in Laemmli buffer. After electrophoresis proteins were blotted on nitrocellulose membranes (Amersham). Membranes were probed for NEP using the monoclonal antibody 56C6 at a dilution of 1:50. […]

[4] = tested on: angiotensin converting enzyme (ACE); test: ACE brain tissue levels; format: in vivo; details: treated vs untreated mice, any examined time point after Aβ42 injection
Experimental: (§2) Preparation of tissue: For combined Western blot analyses and immunohistochemistry, mice were deeply anesthetized and were perfused transcardially using ice-cold PBS (pH 7.4). Frontal cortices of both hemispheres were homogenized in lysis buffer containing 1% Triton X-100, 10 mM Tris, 250 mM sucrose, and 1× complete proteinase inhibitor cocktail, pH=8 (Roche, Switzerland). The remaining brain tissue was fixed over night in 4% paraformaldehyde solution at 4° C. and washed several times in PBS and embedded in paraffin for immuno-histochemistry. For combined immunocytochemistry and Aβ-ELISA, mice were perfused with 4% paraformaldehyde and postfixed in the same solution over night. […]
(§3) Western-blot analysis: Protein concentration of brain extracts were determined with the Bredford protein assay and equal amounts of protein (60 μg) were loaded to each lane of 8% acrylamid gels in Laemmli buffer. […]
(§4) Role of other Aβ degrading enzymes: To determine whether other Aβ-degrading proteases were involved in preventing amyloid formation in the above described mice, brain tissue levels of insulin-degrading enzyme (IDE), a 100 kD Zn-metallo-proteinase that is a major Aβ-degrading enzyme in tissue culture (Qiu W. Q. et al., J. Biol. Chem. 273, 32730-32738, 1998; Vekrellis K. et al., J. Neurosci., 20, 1657-1665, 2000) were analysed by immunohistochemistry and Western blotting. […]

transgenic SwAPP mice [5] = test: GFAP staining of reactive astrocytes (astrogliosis); format: in vivo
Experimental: Preparation of tissue: For combined Western blot analyses and immunohistochemistry, mice were deeply anesthetized and were perfused transcardially using ice-cold PBS (pH 7.4). Frontal cortices of both hemispheres were homogenized in lysis buffer containing 1% Triton X-100, 10 mM Tris, 250 mM sucrose, and 1× complete proteinase inhibitor cocktail, pH=8 (Roche, Switzerland). The remaining brain tissue was fixed over night in 4% paraformaldehyde solution at 4° C. and washed several times in PBS and embedded in paraffin for immuno-histochemistry. For combined immunocytochemistry and Aβ-ELISA, mice were perfused with 4% paraformaldehyde and postfixed in the same solution over night. The caudal parts of the brains reaching from intraaural 1 to intraaural −2 (Franklin, K. B. J, Paxinos, G. Academic Press, 1997) were dissected and prepared for Aβ ELISA. The remaining brain tissue was embedded in paraffin and then processed for immunohistochemistry. Five μm thick paraffin sections were probed with antibodies against NEP, IDE (Insulin degrading enzyme), ACE (Angiotensin converting enzyme), endopeptidase 24.15 protein, and GFAP (glial fibrillary protein) according to providers' protocols and counterstained with nuclear fast red (Fluka, Switzerland).
Prevention of amyloid formation was accompanied by reduced reactive astrocytosis: Because brain amyloidosis in SwAPP mice is accompanied by reactive astrocytosis, GFAP-reactive astrocytes were analysed in response to the Aβ42-injection protocol (FIG. 6 a-c). […] Similar activation of astrocytes in brain regions unaffected by amyloid plaque formation is a well established finding in transgenic mice that overexpress disease-causing APP mutants (Schenk D. et al., Nature 400, 173-177, 1999). It may be explained by high sensitivity of hippocampal astrocytes to unknown toxic activities related to the expression of the SwAPP transgene; these may well be independent of amyloid plaque formation.

metalloprotease 24.15 = test: Metalloprotease 24.15 brain levels; format: in vivo, mice; details: in response to Aβ injections
Experimental: as §2, §3, §4

APP = APP levels by Western blots of protein extracts; format: in vivo; details: Aβ42- or vehicle treated, or untreated transgenic mice
Experimental: Western-blot analysis: Protein concentration of brain extracts were determined with the Bredford protein assay and equal amounts of protein (60 μg) were loaded to each lane of 8% acrylamid gels in Laemmli buffer. After electrophoresis proteins were blotted on nitrocellulose membranes (Amersham). Membranes were probed for NEP using the monoclonal antibody 56C6 at a dilution of 1:50. Blots were stripped in a buffer containing 2% SDS, 62.5 mM Tris (pH 6.8) and 100 mM β-mercaptoethanol at 50° C. for 30 minutes. After stripping the membrane were probed sequentially with anti-Alzheimer precursor protein A4 antibody (clone 22C11, 1:1000), IDE-1 (1:800), ACE (1:200), and the polyclonal antibody to 24.15 protein (1:600). Finally, staining for actin (1:1000) was performed as a loading control. […]
as §1

PDAPP transgenic mouse = details: cited from earlier work
human Aβ = test: Aβ sandwich ELISA on formic acid extracted brain tissue; format: in vivo; details: SwAPP mice, 20 weeks after injection, n=4; vs untreated SwAPP littermates; p≦0.05
Experimental: as §2
Aβ-ELISA: For quantitation of Aβ content in mouse brain, protein extracts of fixed brain tissue reaching from the stereotaxic coordinates intraaural 1 to intraaural −2 were prepared. […] 150 μl diluted samples or standards (Aβ40 Bachem) were incubated overnight, washed, and detected with biotinylated monoclonal mouse antibody 6H1 directed against amino acids 1-17 of human Aβ (Evotec Neurosciences GmbH) incubated at a concentration of 1 μg/ml in blocking buffer for 2 hours at 37° C., and visualised with a peroxidase reaction using tetramethylbenzidine as substrate, and detection at 450 nm. […]

[6] = tested on: insulin-degrading enzyme (IDE); test: IDE brain tissue levels by immunohistochemistry and Western blotting; format: in vivo, mice; details: in response to Aβ42 injections
Experimental: as §2, §3, §4

Compound	inhibition of NL-1 (NL-1 (neprilysin like 1))	thioflavin S- or 4G8-positive amyloid plaques (transgenic SwAPP mice [1]; SwAPP mice at 31 weeks of age, 20 weeks after single injection (4/4), vs untreated SwAPP mice)	plaque counts of 4G8 stained amyloid plaques (transgenic SwAPP mice [1]; SwAPP mice, 20 weeks after injection, vs untreated littermates, p≦0.05)	neuronal NEP immunoreactivity (NEP [2])	NEP protein levels in brain extracts (Western blot) (NEP [3])	ACE levels [4]	GFAP-positive astrocytes in hippocampi (transgenic SwAPP mice [5]; Aβ42-treated SwAPP mice)	amyloid plaque-associated clusters of GFAP-positive cells (transgenic SwAPP mice [5]; SwAPP mice after Aβ42 injections)	GFAP staining of reactive astrocytes in cerebral cortices (transgenic SwAPP mice [5]; SwAPP mice, 20 weeks after injection, vs untreated SwAPP littermates)	metalloprotease 24.15 levels (metalloprotease 24.15)	APP levels (APP)	β-amyloid-plaque formation, neuritic dystrophy and astrogliosis (PDAPP transgenic mouse; immunisation of young animals (6 weeks of age))	extent and progression of AD-like neuropathologies (PDAPP transgenic mouse; treatment of older animals (11 months))	brain Aβ levels (ELISA, formic acid extracted total Aβ) (human Aβ)	tissue levels of IDE [6]
CC(C)C[C@H](NP(=O)(O)O[C@@H]1O[C@@H](C)[C@H](O)[C@@H](O)[C@H]1O)C(=O)N[C@@H](Cc1c[nH]c2ccccc12)C(=O)O [phosphoramidon]	efficiently inhibited														
Aβ42: Fibrillar aggregated synthetic Aβ42 prepared by resuspending lyophilized Aβ42 (Bachem) in PBS, pH 7.4 by shaking for 48 hours at 37° C.		significant reduction; also recorded: completely free	significantly reduced; also recorded: marked significant decrease	increased	significant increase; also recorded: significantly higher	did not differ	abundant	completely absent	significantly lower	unchanged	no difference	essentially prevented	markedly reduced	significantly reduced; also recorded: untreated control SwAPP mice (n=4) were significantly higher than in Aβ42-treated SwAPP mice	no differences
